{"source": "patent US10711261B2", "about": "(priority 2015, dated 2020)", "key": {"[1]": {"target": "T1, DJ-1 (Homo sapiens, UniProt Q99497)", "T1 sequence (Q99497 whole entry)": "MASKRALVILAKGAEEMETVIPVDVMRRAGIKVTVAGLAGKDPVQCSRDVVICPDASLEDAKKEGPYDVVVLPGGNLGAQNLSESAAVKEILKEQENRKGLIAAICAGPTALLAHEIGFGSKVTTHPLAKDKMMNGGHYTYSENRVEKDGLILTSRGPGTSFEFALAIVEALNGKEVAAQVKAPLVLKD", "format": "binding"}, "[2]": {"target": "T1, DJ-1", "format": "binding", "remark": "listed apart in the source"}, "[3]": {"target": "WT DJ-1 (Homo sapiens, UniProt Q99497)", "sequence (Q99497 whole entry)": "as above", "format": "binding"}, "[4]": {"target": "recombinant human WT SOD1 (Homo sapiens, UniProt P00441)", "sequence (P00441 2-154)": "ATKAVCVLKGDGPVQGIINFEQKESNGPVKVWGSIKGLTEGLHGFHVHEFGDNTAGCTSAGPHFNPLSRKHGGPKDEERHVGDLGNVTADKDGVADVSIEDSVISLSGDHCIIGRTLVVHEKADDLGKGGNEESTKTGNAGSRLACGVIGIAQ", "format": "binding"}, "[5]": {"settings": "in vivo; cited from earlier work"}}, "note": "“Also recorded” adds a separate entry of the source."}
{"compound": "[O-][S+]1CCCCS1", "note": "(stereo not drawn) [NSC56224, 1-oxo-1,2-dithiane]", "values": [{"measurement": "denaturation temperature of DJ-1 (thermal stability)", "setting": "[1]", "value": "increase the measured denaturation temperature of DJ-1 relative to untreated DJ-1"}, {"measurement": "site of covalent linkage in DJ-1 dimer", "setting": "[2]", "value": "covalently linked DJ-1 dimers at Cys53; also recorded: two trypsin digest fragments of DJ-1 containing Cys53 (underlined) linked by NSC56224"}, {"measurement": "covalent dimerization of DJ-1", "setting": "[3]", "value": "identified as a covalent dimerizer of DJ-1"}, {"measurement": "covalent dimerization of SOD1 (change in mass of covalently linked SOD1 dimers)", "setting": "[4]", "value": "capable of covalently dimerizing SOD1"}, {"measurement": "extent of cross-linking of SOD1 monomers", "setting": "[4]", "value": "able to cross-link the majority of SOD1 monomers in the sample"}]}
{"compound": "NC(=O)NN=C1CSSC1", "note": "[NSC72268]", "values": [{"measurement": "denaturation temperature of DJ-1 (thermal stability)", "setting": "[1]", "value": "increase the measured denaturation temperature of DJ-1 relative to untreated DJ-1"}, {"measurement": "covalent dimerization of DJ-1", "setting": "[3]", "value": "identified as a specific DJ-1 covalent dimerizer; also recorded: specific covalent dimerizer of DJ-1"}]}
{"compound": "OCC1(CO)CSSC1", "note": "[1,2-dithiolane-4,4-dimethanol]", "values": [{"measurement": "covalent dimerization of SOD1 (change in mass of covalently linked SOD1 dimers)", "setting": "[4]", "value": "capable of covalently dimerizing SOD1"}]}
{"compound": "CC(C)C[C@H](NC(=O)[C@H](Cc1ccccc1)NC(=O)c1cnccn1)B(O)O", "note": "[bortezomib]", "values": [{"measurement": "LD100", "setting": "[5]", "value": "< 0.25", "unit": "mg/kg"}]}
